One assay addresses human FPR2 (Homo sapiens (Human), UniProt P25090). As to the kind of experiment: FPR2 cyclic adenosine monophosphate (cAMP) assay. Format: cell-based. The settings on record: CHO cells overexpressing human FPR2; forskolin 5 µM; inhibition of cAMP production; read-out: hFPR2 cAMP2 EC50. An outline of the steps: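 CHO cells overexpressing human FPR2 (2,000/well) incubated 30 min at room temperature with compound (0.020 nM–100 µM, 1% DMSO), 5 µM forskolin and 200 µM IBMX.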
For orientation: Changes in cAMP serve as a functional read-out for many G protein-coupled receptors.

The target of a further assay is human FPR1 (Homo sapiens (Human), UniProt P21462). As to the kind of experiment: FPR1 cyclic adenosine monophosphate (cAMP) assay. The settings on record: CHO cells overexpressing human FPR1; forskolin 10 µM; inhibition of cAMP production; read-out: hFPR1 cAMP EC50. The assay is classed as cell-based. In short, it runs like this:
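CHO cells overexpressing human FPR1 (4,000 cells/well) stimulated with 10 µM forskolin plus 200 µM IBMX in the presence of compound (0.020 nM–100 µM, 1% DMSO), 30 min at room temperature. Intracellular cAMP measured by HTRF. Inhibition of cAMP production fitted to a 4-parameter logistic equation.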

Chain of human FPR1 (P21462 whole entry): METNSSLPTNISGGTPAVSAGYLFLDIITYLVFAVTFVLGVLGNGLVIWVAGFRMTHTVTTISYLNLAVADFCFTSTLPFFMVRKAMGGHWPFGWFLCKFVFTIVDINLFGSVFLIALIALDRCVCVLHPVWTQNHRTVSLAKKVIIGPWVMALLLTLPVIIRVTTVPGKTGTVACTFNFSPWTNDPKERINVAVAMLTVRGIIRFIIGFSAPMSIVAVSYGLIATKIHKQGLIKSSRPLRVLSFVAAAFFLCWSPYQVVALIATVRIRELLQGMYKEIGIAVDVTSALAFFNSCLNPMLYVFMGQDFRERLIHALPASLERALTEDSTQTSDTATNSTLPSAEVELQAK
Chain of human FPR2 (P25090 whole entry): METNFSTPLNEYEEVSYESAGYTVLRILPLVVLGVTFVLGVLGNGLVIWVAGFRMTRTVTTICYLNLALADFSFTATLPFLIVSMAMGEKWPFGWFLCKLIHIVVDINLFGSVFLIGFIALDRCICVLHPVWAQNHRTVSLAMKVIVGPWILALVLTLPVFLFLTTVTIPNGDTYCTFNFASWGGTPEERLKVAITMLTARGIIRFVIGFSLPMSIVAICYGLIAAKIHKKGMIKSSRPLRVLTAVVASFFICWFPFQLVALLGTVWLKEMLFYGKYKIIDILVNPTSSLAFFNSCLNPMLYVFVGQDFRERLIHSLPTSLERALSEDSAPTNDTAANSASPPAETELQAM

For the compound `CCn1ccc(C)c(N2C[C@@H](c3c(F)cc(OC)cc3F)[C@H](NC(=O)c3ccc(OC(F)(F)F)cc3)C2=O)c1=O` [Example 228], the EC50 at human FPR2 was determined as 6.2 nM; at human FPR1, 1.2 nM.
On to `CCn1cc(F)cc(N2C[C@@H](c3c(F)cc(OC)cc3F)[C@H](NC(=O)c3ccc(OC(F)(F)F)cc3)C2=O)c1=O` [Example 230], for which the EC50 at human FPR2 turned out to be 6.2 nM; on human FPR1 it was 88 nM.
The matching figures for `COCCn1ccc(C)c(N2C[C@@H](c3c(F)cc(OC)cc3F)[C@H](NC(=O)c3ccc(OC(F)F)cc3)C2=O)c1=O` [Example 232]: 6.3 nM and 3.2 nM.
As for `COc1cc(N2CCN(C)CC2)nc(N2C[C@@H](c3c(F)cc(OC)cc3F)[C@H](NC(=O)c3ccc(Cl)cc3)C2=O)c1` [Example 233], the EC50 is 6.3 nM at human FPR2 and greater than 5000 nM on human FPR1.
For `COc1cc(F)c([C@@H]2CN(c3nccc(NCC(C)O)c3C(F)(F)F)C(=O)[C@H]2NC(=O)c2ccc(OC(F)F)cc2)c(F)c1` (stereo partly drawn) [Example 234], in that order: 6.3 nM and 1100 nM.
With `COc1cc(F)c([C@@H]2CN(c3cccnc3OC3CCOC3)C(=O)[C@H]2NC(=O)c2ccc(OC(F)(F)F)cc2)c(F)c1` (stereo partly drawn) [Example 235], the EC50 at human FPR2 worked out at 6.5 nM; on human FPR1, 84 nM.
With `O=C(N[C@@H]1C(=O)N(c2cccn(CC(F)F)c2=O)C[C@H]1c1ccc(Cl)cc1)c1ccc(OC(F)F)cc1` [Example 236], the figures for the EC50 on human FPR2 and on human FPR1 were 6.5 nM and 30 nM, respectively.
As for `COc1cc(F)c([C@@H]2CN(c3cc(C(F)(F)F)cn(C)c3=O)C(=O)[C@H]2NC(=O)c2ccc(Cl)cc2)c(F)c1` [Example 238], the EC50 turned out to be 6.6 nM on human FPR2 and 1500 nM at human FPR1.
In the case of `COc1cc(F)c([C@@H]2CN(c3nccc(NCC(C)(C)O)c3C(F)(F)F)C(=O)[C@H]2NC(=O)c2ccc(OC(F)F)cc2)c(F)c1` [Example 239], the EC50 stood at 6.6 nM at human FPR2 and 650 nM at human FPR1.
`COc1cc(F)c([C@@H]2CN(c3ccc(CO)[nH]c3=O)C(=O)[C@H]2NC(=O)c2ccc(OC(F)(F)F)cc2)c(F)c1` [Example 240]: the EC50 at human FPR2 came out at 6.6 nM; at human FPR1, 130 nM.
As for `COc1cc(F)c([C@@H]2CN(c3cccn(CCC(F)(F)F)c3=O)C(=O)[C@H]2NC(=O)c2ccc(OC(F)F)cc2)c(F)c1` [Example 241], the concentration for a half-maximal effect (EC50) on human FPR2 was determined as 6.6 nM; at human FPR1 it was 38 nM.
For `CCn1cccc(N2C(=O)[C@@H](NC(=O)c3ccc(OC(F)(F)F)cc3)[C@H](c3c(F)cc(OC)cc3F)[C@H]2C)c1=O` [Example 242], in that order: 6.7 nM and 110 nM.
Take `COc1cc(F)c([C@@H]2CN(c3ccc(CO)n(C)c3=O)C(=O)[C@H]2NC(=O)c2ccc(OC(F)F)cc2)c(F)c1` [Example 243]: the 50% effective concentration (EC50) stood at 6.7 nM at human FPR2 and 170 nM at human FPR1.
Regarding `COc1cc(F)c([C@@H]2CN(c3cc(C)cn(C)c3=O)C(=O)[C@H]2NC(=O)c2ccc(OC(F)F)cc2)c(F)c1` [Example 244], the values for the 50% effective concentration (EC50) on human FPR2 and at human FPR1 were 6.8 nM and 950 nM, respectively.
In the case of `COCC(C(=O)N(C)C)n1cccc(N2C[C@@H](c3ccc(Cl)cc3)[C@H](NC(=O)c3ccc(OC(F)(F)F)cc3)C2=O)c1=O` (stereo partly drawn) [Example 245], the EC50 on human FPR2 came out at 6.8 nM; at human FPR1 it was 1.1 nM.
With `COc1cc(F)c([C@@H]2CN(c3nc(N4C(=O)CC[C@H]4CO)ccc3F)C(=O)[C@H]2NC(=O)c2ccc(OC(F)(F)F)cc2)c(F)c1` [Example 246], the EC50 on human FPR2 is 6.9 nM; at human FPR1, 280 nM.
For `COc1cc(F)c([C@@H]2CN(c3nc(C)ccc3C(F)(F)F)C(=O)[C@H]2NC(=O)c2ccc(OC(F)F)cc2)c(F)c1` [Example 247], the values for the EC50 on human FPR2 and on human FPR1 were 6.9 nM and 250 nM, respectively.
For `COCC(C(=O)N(C)C)n1ccc(C)c(N2C[C@@H](c3c(F)cc(OC)cc3F)[C@H](NC(=O)c3ccc(OC(F)(F)F)cc3)C2=O)c1=O` (stereo partly drawn) [Example 248], in that order: 6.9 nM and 0.7 nM.
Consider `CCn1cccc(N2C[C@@H](c3ccc(OC)cc3F)[C@H](NC(=O)c3ccc(OC(F)(F)F)cc3)C2=O)c1=O` [Example 249], for which the EC50 stood at 6.9 nM at human FPR2 and 13 nM at human FPR1.
The matching figures for `COc1cc(F)c([C@@H]2CN(c3nccc(N4CCN(C)CC4)c3C(F)(F)F)C(=O)[C@H]2NC(=O)c2ccc(Cl)cc2)c(F)c1` [Example 250]: 6.9 nM and 4800 nM.
The matching figures for `COc1cc(F)c([C@@H]2CN(c3c(C#N)ccn(C)c3=O)C(=O)[C@H]2NC(=O)c2ccc(Cl)cc2)c(F)c1` [Example 251]: 7 nM and greater than 5000 nM.
Take `COCC(CO)n1cccc(N2C[C@@H](c3ccc(OC)cc3)[C@H](NC(=O)c3ccc(OC(F)F)cc3)C2=O)c1=O` (stereo partly drawn) [Example 252]: the EC50 on human FPR2 was 7 nM; at human FPR1, 44 nM.
As to `COc1cc(F)c([C@@H]2CN(c3cccn(CC(C)OC)c3=O)C(=O)[C@H]2NC(=O)c2ccc(OC(F)F)cc2)c(F)c1` (stereo partly drawn) [Example 253], the EC50 came to 7 nM at human FPR2 and 11 nM on human FPR1.
The matching figures for `COc1cc(F)c([C@@H]2CN(c3cccn(CC(C)(CO)CO)c3=O)C(=O)[C@H]2NC(=O)c2ccc(OC(F)(F)F)cc2)c(F)c1` [Example 254]: 7 nM and 52 nM.
For `CCn1cccc(N2C(=O)[C@@H](NC(=O)c3ccc(OC(F)F)cc3)[C@H](c3c(F)cc(OC)cc3F)[C@H]2C)c1=O` [Example 255], in that order: 7 nM and 52 nM.
For `COc1cc(F)c([C@@H]2CN(c3nc(N4C[C@H]5C[C@@H]4CO5)ccc3F)C(=O)[C@H]2NC(=O)c2ccc(OC(F)F)cc2)c(F)c1` [Example 256], the results for the EC50 at human FPR2 and at human FPR1 were 7.2 nM and 530 nM, respectively.
As for `COCC(C(=O)N(C)C)n1ccc(C)c(N2C[C@@H](c3c(F)cc(OC)cc3F)[C@H](NC(=O)c3ccc(OC(F)F)cc3)C2=O)c1=O` (stereo partly drawn) [Example 257], the values for the concentration for a half-maximal effect (EC50) at human FPR2 and at human FPR1 were 7.3 nM and 1.6 nM, respectively.
The matching figures for `COc1cc(F)c([C@@H]2CN(c3cccn(CCF)c3=O)C(=O)[C@H]2NC(=O)c2ccc(OC(F)F)cc2)c(F)c1` [Example 258]: 7.4 nM and 83 nM.
`COc1cc(F)c([C@@H]2CN(c3nc(N4C[C@@H]5C[C@H]4CN5C)ccc3OC)C(=O)[C@H]2NC(=O)c2ccc(Cl)cc2)c(F)c1` [Example 259]: the EC50 at human FPR2 amounted to 7.4 nM; on human FPR1, 580 nM.
Take `COCCn1ccc(C)c(N2C[C@@H](c3ccc(OC)cc3)[C@H](NC(=O)c3ccc(OC(F)F)cc3)C2=O)c1=O` [Example 260]: the EC50 at human FPR2 was 7.5 nM; at human FPR1, 1.2 nM.
As to `CNc1ccnc(N2C[C@@H](c3c(F)cc(OC)cc3F)[C@H](NC(=O)c3ccc(OC(F)F)cc3)C2=O)c1C(F)(F)F` [Example 261], the EC50 on human FPR2 turned out to be 7.5 nM; on human FPR1, 940 nM.
For `COc1cc(F)c([C@@H]2CN(c3c(C)ccn(CCO)c3=O)C(=O)[C@H]2NC(=O)c2ccc(OC(F)F)cc2)c(F)c1` [Example 262], in that order: 7.5 nM and 18 nM.
Consider `COc1cc(F)c([C@@H]2CN(c3nccc(NC4CCOC4)c3C(F)(F)F)C(=O)[C@H]2NC(=O)c2ccc(Cl)cc2)c(F)c1` (stereo partly drawn) [Example 263], for which the figures for the EC50 on human FPR2 and on human FPR1 were 7.5 nM and 1300 nM, respectively.

What is called EC50 is the concentration giving half of the maximal effect.

These data come from patent US20230348426A1, “OXOPYRROLIDINE FPR2 AGONISTS” (Bristol-Myers Squibb Company, priority 2020, published 2023).
